Measured values: patent USRE42890E1, “Furazanobenzimidazoles” (Basilea Pharmaceutica AG, priority 2003, dated 2011)

Tests used:
[1] = test system: adherent cells or suspension cells; test: Hoechst 33342 nuclear staining (fraction of apoptotic nuclei); format: cell-based; set-up: key: 0 relating to no activity; 1 relating to weak activity comprising less than 70% of the cells; score 2 relating to strong activity comprising more than 70% of the cells
Procedure: (§1) Cell lines are cultured in RPMI-1640 tissue culture medium containing either 5% or 10% fetal calf serum, 0.05 mM 2-mercaptoethanol, 2 mM glutamine and penicillin/streptomycin 50 μg/ml (complete medium) (Sigma, Buchs, Switzerland). General growth conditions are 37° C. and 7.5% CO2.
This assay is performed in 96 well tissue culture plates. Appropriate number of cells (adherent cells: 3-5*10^3, suspension cells: 8-10*10^3) are being seeded out in 80 μl complete medium. Adherent cells are incubated for 24 h for proper spreading out before addition of test compounds while suspension cells are immediately treated with test compounds after seeding out. The test compounds are added in 20 μl complete medium containing max 5% DMSO. […] After 24 h or 48 h incubation at culture conditions, 10 μl medium containing Hoechst 33342 dye (Sigma B-2261) at 2-5 μg/ml are added to each well. The assay plates are then further incubated for 30 minutes and subsequently analyzed with a standard inverted fluorescence microscope.
The readout allows the determination of the fraction of apoptotic nuclei as well as other morphological criteria specific for apoptosis as a function of the treatment. The following scores are used: 0 relating to no activity, 1 relating to weak activity comprising less than 70% of the cells and score 2 relating to strong activity comprising more than 70% of the cells.

MRC5 = test: MTS proliferation assay, MRC5; format: cell-based; details: MRC5, 72 h incubation; read-out: MTS proliferation assay IC 50 MRC5
Procedure: as §1
(§2) The assay is performed in 96 well tissue culture plates. The cells (range: 1.5*10^3-10^4) are seeded out in 80 μl complete medium 24 h prior to compound treatment. The test compounds are added in 20 μl complete medium containing max 5% DMSO. The final compound concentrations in the assays are 10 μM, 3 μM, 1 μM and 0.3 μM, respectively. The assay plates are incubated for 72 h at culture conditions. The MTS reagent is prepared according to the manufacturer's protocol (Promega G1111). 20 μl MTS reagent are added to each well, the assay plates are quickly spun and incubated for another 3 h at culture conditions. Subsequently, the plates are shortly shaked and absorption measured with a microplate-reader at 492 nm.

Jurkat = test: MTS proliferation assay, Jurkat; format: cell-based, human; details: 72 h incubation, read-out: MTS proliferation assay IC 50 Jurkat
Procedure: as §1
(§3) The following human cell lines (either EGFP transfected or not) are being used: HeLa (ATCC: CCL-2), KB (ATCC: CCL-17), MCF7 (ATCC: HTB-22), SK-BR-3 (ATCC: HTB-30), SK-Mel 1 (ATCC: HTB-67), SK-Mel 28 (ATCC: HTB-72), PC-3 (ATCC: CRL-1435), SW 480 (ATCC: CCL-228), NCl-H460 (ATCC: HTB-177), NCl-H1792 (ATCC: CRL-5895), HT1080 (ATCC: CCL-21), Jurkat (ATCC: TIB-152), Ramos (ATCC: CRL-1596), Raji (ATCC: CCL-86), H9 (ATCC: HTB-176), Hut78 (ATCC: TIB-161), K562 (ATCC: CCL 243), HL-60 (ATCC: CCL 240), U-87MG (ATCC: HTB-14), HepG2 (ATCC: HB-8065), U-2 OS (ATCC: HTB-96), Saos-2 (ATCC: HTB-85), U937 (ATCC: CRL 1593), Hs 578T (ATCC: HTB 126), HBL-100 (ATCC: HTB 124), Molt-4 (ATCC: CRL 1582).
as §2

HeLa = test: MTS proliferation assay, HeLa; format: cell-based, human; details: 72 h incubation, read-out: MTS proliferation assay IC 50 HeLa
Procedure: as §1, §3, §2

| Compound | Hoechst 33342 nuclear staining score ([1]; H460, conc 0.01 μm) | Hoechst 33342 nuclear staining score ([1]; H460, conc 0.1 μm) | Hoechst 33342 nuclear staining score ([1]; H460, conc 1 μm) | Hoechst 33342 nuclear staining score ([1]; HeLa, conc 0.01 μm) | Hoechst 33342 nuclear staining score ([1]; HeLa, conc 0.1 μm) | Hoechst 33342 nuclear staining score ([1]; HeLa, conc 1 μm) | Hoechst 33342 nuclear staining score ([1]; Jily, conc 0.01 μm) | Hoechst 33342 nuclear staining score ([1]; Jily, conc 0.1 μm) | Hoechst 33342 nuclear staining score ([1]; Jurkat, conc 0.01 μm) | Hoechst 33342 nuclear staining score ([1]; Jurkat, conc 0.1 μm) | Hoechst 33342 nuclear staining score ([1]; Jurkat, conc 1 μm) | Hoechst 33342 nuclear staining score ([1]; MRC5, conc 0.01 μm) | Hoechst 33342 nuclear staining score ([1]; MRC5, conc 0.1 μm) | Hoechst 33342 nuclear staining score ([1]; MRC5, conc 1 μm) | Hoechst 33342 nuclear staining score ([1]; PBLs, conc 0.01 μm) | Hoechst 33342 nuclear staining score ([1]; PBLs, conc 0.1 μm) | Hoechst 33342 nuclear staining score ([1]; PBLs, conc 1 μm) | IC50 (MRC5) | IC50 (Jurkat) | IC50 (HeLa) | other results |
| --- | --- | --- | --- | --- | --- | --- | --- | --- | --- | --- | --- | --- | --- | --- | --- | --- | --- | --- | --- | --- | --- |
| Nc1nonc1-c1nc2ccccc2n1CC(=NO)c1ccccc1Cl (mixture of isomers) [Example 33] | 0 | 0 | 0 | 0 | 0 | 0 | 0 | 0 | 0 | 0 | 0 | 0 | 0 | 0 | 0 | 0 | 0 | > 1000 nM | > 1000 nM | > 1000 nM | Hoechst 33342 nuclear staining score ([1]; Jily, conc 1 μm): 0 |
| Nc1nonc1-c1nc2ccccc2n1CC(=NO)c1ccc(Cl)cc1 (mixture of isomers) [Example 21] | 0 | 0 | 0 | 0 | 0 | 0 |  |  | 0 | 0 | 0 | 0 | 0 | 0 | 0 | 0 | 0 | > 1000 nM | > 1000 nM | > 1000 nM |  |
| Nc1nonc1-c1nc2ccccc2n1CC(=O)c1ccccc1Cl [Example 32] | 0 | 0 | 0 | 0 | 0 | 0 | 0 | 0 | 0 | 0 | 2 (score 2 relating to strong activity comprising more than 70% of the cells) | 0 | 0 | 0 | 0 | 0 | 0 | > 1000 nM | 100 to 1000 nM | 100 to 1000 nM | Hoechst 33342 nuclear staining score ([1]; Jily, conc 1 μm): 0 |
| COc1cccc(C(Cn2c(-c3nonc3N)nc3ccccc32)=NO)c1 (mixture of isomers) [Example 24] | 0 | 0 | 0 | 0 | 0 | 0 | 0 | 0 | 0 | 0 | 0 | 0 | 0 | 0 | 0 | 0 | 0 | > 1000 nM | > 1000 nM | > 1000 nM | Hoechst 33342 nuclear staining score ([1]; Jily, conc 1 μm): 0 |
| Nc1nonc1-c1nc2ccccc2n1CC(=NO)c1ccc(-c2ccccc2)cc1 (mixture of isomers) [Example 27] | 0 | 0 | 0 | 0 | 0 | 0 |  |  | 0 | 0 | 0 | 0 | 0 | 0 | 0 | 0 | 0 | > 1000 nM | > 1000 nM | > 1000 nM |  |
| COc1ccc(C(Cn2c(-c3nonc3N)nc3ccccc32)=NO)cc1 (mixture of isomers) [Example 20] | 0 | 0 | 0 | 0 | 0 | 0 |  |  | 0 | 0 | 0 | 0 | 0 | 0 | 0 | 0 | 0 | > 1000 nM | 100 to 1000 nM | > 1000 nM |  |
| CON=C(Cn1c(-c2nonc2N)nc2ccccc21)c1ccc(-c2ccccc2)cc1 (mixture of isomers) [Example 28] | 0 | 0 | 0 | 0 | 0 | 0 | 0 | 0 | 0 | 0 | 0 | 0 | 0 | 0 | 0 | 0 | 0 | > 1000 nM | > 1000 nM | > 1000 nM | Hoechst 33342 nuclear staining score ([1]; Jily, conc 1 μm): 0 |
| CC(=O)Nc1nonc1-c1nc2ccccc2n1CC(=O)c1ccccc1 [Example 40] | 0 | 0 | 0 | 0 | 0 | 0 | 0 | 0 | 0 | 0 | 0 | 0 | 0 | 0 | 0 | 0 | 0 | > 1000 nM | 100 to 1000 nM | 100 to 1000 nM | Hoechst 33342 nuclear staining score ([1]; Jily, conc 1 μm): 1 (1 relating to weak activity comprising less than 70% of the cells) |
